Values of other authors in patent publication US7439254B2, “Compounds, compositions, and methods” (Cytokinetics, Inc., priority 2003, dated 2008).

Test system: A549 cells
Conditions: data provided by National Cancer Institute, Developmental Therapeutic Program

Going from `O=c1[nH]cc(F)c(=O)[nH]1` [5-fluorouracil] to `COc1cccc2c1C(=O)c1c(O)c3c(c(O)c1C2=O)C[C@@](O)(C(=O)CO)C[C@@H]3O[C@H]1C[C@H](N)[C@H](O)[C@H](C)O1` [doxorubicin], the GI50 falls from 1000 nM to 63 nM (16-fold).

Compared with `NC(=O)NO` [hydroxyurea], `CC(=O)O[C@H]1C(=O)[C@@]2(C)[C@H]([C@H](OC(=O)c3ccccc3)[C@]3(O)C[C@H](OC(=O)[C@H](O)[C@@H](NC(=O)c4ccccc4)c4ccccc4)C(C)=C1C3(C)C)[C@]1(OC(C)=O)CO[C@@H]1C[C@@H]2O` [paclitaxel] is far lower in GI50: 500000 nM for the first, 4 nM for the second.
